Results as given in the supplement of paper PMC13380429.

How the values were obtained:
Details in all cases: 72 h
[1] = system: U2OS; assay: cell viability relative to DMSO; higher = less toxic
[2] = system: Caco-2; assay: as above
[3] = system: HepG2; assay: as above
[4] = system: Calu-3; assay: as above
[5] = system: Vero E6; assay: as above
[6] = system: U2OS; assay: drug sensitivity score (DSS) for viability; higher = more toxic; extreme values may be limits of the assay
[7] = system: Caco-2; assay: as above
[8] = system: HepG2; assay: as above
[9] = system: Calu-3; assay: as above
[10] = system: Vero E6; assay: as above
[11] = system: U2OS; assay: relative viability EC50 (midpoint between 100% and the lowest measured viability); higher = less toxic
[12] = system: Caco-2; assay: as above
[13] = system: HepG2; assay: as above
[14] = system: Calu-3; assay: as above
[15] = system: Vero E6; assay: as above

Row | SMILES | cell viability ([1]; 1 nM) | cell viability ([1]; 10 nM) | cell viability ([1]; 100 nM) | cell viability ([1]; 1000 nM) | cell viability ([1]; 10000 nM) | cell viability ([2]; 1 nM) | cell viability ([2]; 10 nM) | cell viability ([2]; 100 nM) | cell viability ([2]; 1000 nM) | cell viability ([2]; 10000 nM) | cell viability ([3]; 1 nM) | cell viability ([3]; 10 nM) | cell viability ([3]; 100 nM) | cell viability ([3]; 1000 nM) | cell viability ([3]; 10000 nM) | cell viability ([4]; 1 nM) | cell viability ([4]; 10 nM) | cell viability ([4]; 100 nM) | cell viability ([4]; 1000 nM) | cell viability ([4]; 10000 nM) | cell viability ([5]; 1 nM) | cell viability ([5]; 10 nM) | cell viability ([5]; 100 nM) | cell viability ([5]; 1000 nM) | cell viability ([5]; 10000 nM) | drug sensitivity score [6] | drug sensitivity score [7] | drug sensitivity score [8] | drug sensitivity score [9] | drug sensitivity score [10] | relative viability EC50 [11] | relative viability EC50 [12] | relative viability EC50 [13] | relative viability EC50 [14] | relative viability EC50 [15]
1 | C[C@@H]1CC[C@@]2(NC1)O[C@H]1C[C@H]3[C@@H]4CC=C5C[C@@H](O[C@@H]6O[C@H](CO)[C@@H](O[C@@H]7O[C@@H](C)[C@H](O)[C@@H](O)[C@H]7O)[C@H](O)[C@H]6O[C@@H]6O[C@@H](C)[C@H](O)[C@@H](O)[C@H]6O)CC[C@]5(C)[C@H]4CC[C@]3(C)[C@H]1[C@@H]2C [solamargine] | 95.7% | 103% | 97.5% | 99.1% | 0.4% | 92% | 98% | 94.6% | 96% | 0.4% | 104% | 102% | 102% | 89.8% | 0.2% | 89% | 96.7% | 85.8% | 103% | 1% | 101% | 95.2% | 97.4% | 91.9% | 0% | 5.7 | 6.1 | 7.2 | 5.3 | 6.8 | 3.1 µM | 2.86 µM | 2.32 µM | 3.34 µM | 2.51 µM
2 | O=C1C=CC[C@@H]2[C@H]3CCCN4CCC[C@@H](CN12)[C@@H]34 [sophocarpine] | 97.3% | 96.4% | 100% | 98.5% | 106% | 93.8% | 95.9% | 110% | 97% | 90.3% | 92.1% | 99.1% | 80.5% | 91.2% | 89.4% | 98.8% | 103% | 103% | 98% | 102% | 97.8% | 113% | 106% | 109% | 100% | 0 | 0 | 0 | 0 | 0 | > 10 µM | > 10 µM | > 10 µM | > 10 µM | > 10 µM
3 | C[C@]12Cc3c[nH]nc3C[C@@H]1CC[C@@H]1[C@@H]2CC[C@@]2(C)[C@H]1CC[C@]2(C)O [stanozolol] | 98.5% | 101% | 96.9% | 96.3% | 97.3% | 101% | 95% | 104% | 107% | 91.4% | 103% | 98.5% | 101% | 104% | 94.1% | 95% | 100% | 103% | 94.1% | 107% | 101% | 109% | 102% | 106% | 95% | 0 | 0 | 0 | 0 | 0 | > 10 µM | > 10 µM | > 10 µM | > 10 µM | > 10 µM
